Activity calls are given as the source filed them. The calls are words filed in the database; no cut-off is given here.
Assays:
[1] = target: T1, Peroxiredoxin-2 (Homo sapiens) (UniProt P32119); experiment: Binding affinity to PRDX2 in human MDA-MB-453 cells measured after 6 hrs by pull-down assay; format: cell-based; conditions: dose <= 20.0 µM, DDE = dose-dependent effect
T1 sequence (whole entry): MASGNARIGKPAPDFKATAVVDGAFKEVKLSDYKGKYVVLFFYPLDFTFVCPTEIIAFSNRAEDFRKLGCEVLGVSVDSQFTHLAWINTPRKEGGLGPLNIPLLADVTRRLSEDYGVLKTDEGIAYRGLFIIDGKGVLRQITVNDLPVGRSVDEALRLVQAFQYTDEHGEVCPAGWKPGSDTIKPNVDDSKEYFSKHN

[2] = target: Tubulin beta (Homo sapiens) (UniProt P68371+Q9H4B7+Q13509+P04350+Q3ZCM7+P07437+Q13885+Q9BVA1+Q9BUF5+A6NNZ2); experiment: Binding affinity to beta-tubulin in human DOHH-2 cells measured after 6 hrs by pull-down assay; format: cell-based; conditions: DDE = dose-dependent effect
Plastin-2 (Homo sapiens) = target: T2, Plastin-2 (Homo sapiens) (UniProt P13796); experiment: Binding affinity to plastin-2 in human DOHH-2 cells by MS analysis; format: cell-based
T2 sequence (whole entry): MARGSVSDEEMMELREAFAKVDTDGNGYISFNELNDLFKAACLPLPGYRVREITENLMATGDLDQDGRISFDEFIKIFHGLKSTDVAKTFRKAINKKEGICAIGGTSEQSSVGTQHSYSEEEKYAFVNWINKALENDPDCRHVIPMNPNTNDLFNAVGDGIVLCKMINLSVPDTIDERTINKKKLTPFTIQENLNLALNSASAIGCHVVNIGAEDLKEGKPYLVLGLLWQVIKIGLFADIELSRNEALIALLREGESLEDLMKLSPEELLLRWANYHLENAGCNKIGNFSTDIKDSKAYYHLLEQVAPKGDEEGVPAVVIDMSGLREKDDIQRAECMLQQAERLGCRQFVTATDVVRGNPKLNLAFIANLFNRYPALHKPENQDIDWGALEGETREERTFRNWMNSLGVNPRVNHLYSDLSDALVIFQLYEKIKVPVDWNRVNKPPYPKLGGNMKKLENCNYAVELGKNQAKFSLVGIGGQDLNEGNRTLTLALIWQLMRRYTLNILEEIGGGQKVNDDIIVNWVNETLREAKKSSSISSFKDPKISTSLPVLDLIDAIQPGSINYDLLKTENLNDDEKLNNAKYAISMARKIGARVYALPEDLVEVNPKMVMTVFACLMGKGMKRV

[3] = target: T3, Peroxiredoxin-5, mitochondrial (Homo sapiens) (UniProt P30044); experiment: Binding affinity to PRDX5 in human DOHH-2 cells by MS analysis; format: cell-based
T3 sequence (whole entry): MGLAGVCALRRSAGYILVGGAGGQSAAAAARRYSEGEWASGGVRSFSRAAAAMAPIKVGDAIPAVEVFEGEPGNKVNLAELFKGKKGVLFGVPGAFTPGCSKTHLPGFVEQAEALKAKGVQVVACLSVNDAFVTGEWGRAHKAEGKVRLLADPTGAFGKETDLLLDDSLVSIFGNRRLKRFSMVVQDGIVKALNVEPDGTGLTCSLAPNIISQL

[4] = target: T3, Peroxiredoxin-5, mitochondrial (Homo sapiens); experiment: Binding affinity to PRDX5 in human DOHH-2 cells measured after 6 hrs by pull-down assay; format: cell-based; conditions: DDE = dose-dependent effect
[5] = target: T4, D-3-phosphoglycerate dehydrogenase (Homo sapiens) (UniProt O43175); experiment: Binding affinity to D-3-phosphoglycerate dehydrogenase in human DOHH-2 cells measured after 6 hrs by pull-down assay; format: cell-based; conditions: DDE = dose-dependent effect
T4 sequence (whole entry): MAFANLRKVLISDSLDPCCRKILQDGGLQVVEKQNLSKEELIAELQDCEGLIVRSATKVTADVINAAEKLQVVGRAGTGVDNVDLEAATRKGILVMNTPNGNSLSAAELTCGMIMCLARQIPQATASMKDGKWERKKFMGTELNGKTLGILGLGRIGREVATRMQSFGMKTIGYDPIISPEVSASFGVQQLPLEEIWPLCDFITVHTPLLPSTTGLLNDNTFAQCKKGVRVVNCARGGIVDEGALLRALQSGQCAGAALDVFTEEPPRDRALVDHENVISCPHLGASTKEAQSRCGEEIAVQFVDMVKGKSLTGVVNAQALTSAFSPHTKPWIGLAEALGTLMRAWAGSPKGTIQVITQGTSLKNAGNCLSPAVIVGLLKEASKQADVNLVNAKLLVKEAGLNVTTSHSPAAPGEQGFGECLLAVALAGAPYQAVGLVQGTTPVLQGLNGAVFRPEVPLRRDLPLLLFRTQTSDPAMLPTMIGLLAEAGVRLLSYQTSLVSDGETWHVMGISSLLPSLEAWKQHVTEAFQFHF

[6] = target: Glutathione S-transferase P (Homo sapiens) (UniProt P09211); experiment: Binding affinity to GSTP1 in human MDA-MB-453 cells measured after 6 hrs by pull-down assay; format: cell-based; conditions: dose <= 20.0 µM, DDE = dose-dependent effect
Chain of Glutathione S-transferase P (Homo sapiens) (P09211 2-210 limits assumed): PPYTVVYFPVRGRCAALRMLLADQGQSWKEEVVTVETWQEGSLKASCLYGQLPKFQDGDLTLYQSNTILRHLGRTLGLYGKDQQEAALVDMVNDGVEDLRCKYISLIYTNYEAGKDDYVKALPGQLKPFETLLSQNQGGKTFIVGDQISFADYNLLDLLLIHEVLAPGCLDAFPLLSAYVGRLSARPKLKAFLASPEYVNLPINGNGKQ

[7] = target: T5, Thioredoxin-dependent peroxide reductase, mitochondrial (Homo sapiens) (UniProt P30048); experiment: Binding affinity to PRDX3 in human DOHH-2 cells measured after 6 hrs by pull-down assay; format: cell-based; conditions: DDE = dose-dependent effect
T5 sequence (whole entry): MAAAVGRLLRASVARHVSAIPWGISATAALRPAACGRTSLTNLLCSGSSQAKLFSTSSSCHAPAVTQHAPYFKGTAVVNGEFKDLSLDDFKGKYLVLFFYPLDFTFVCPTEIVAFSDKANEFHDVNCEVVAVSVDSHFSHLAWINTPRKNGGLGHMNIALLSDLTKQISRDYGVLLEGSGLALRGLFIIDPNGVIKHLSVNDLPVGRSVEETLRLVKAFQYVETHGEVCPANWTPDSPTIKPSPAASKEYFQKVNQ

[8] = target: Glutathione S-transferase P (Homo sapiens) (UniProt P09211); experiment: Binding affinity to GSTP1 in human DOHH-2 cells measured after 6 hrs by pull-down assay; format: cell-based; conditions: DDE = dose-dependent effect
Homo sapiens = species on record: Homo sapiens; experiment: Binding affinity to ADP-bound full-length human HSP70 assessed as Cys574 adduct formation at SBDalpha domain by LC-MS/MS analysis
[9] = target: T4, D-3-phosphoglycerate dehydrogenase (Homo sapiens); experiment: Binding affinity to D-3-phosphoglycerate dehydrogenase in human MDA-MB-453 cells measured after 6 hrs by pull-down assay; format: cell-based; conditions: dose <= 20.0 µM, DDE = dose-dependent effect
[10] = target: T6, Tubulin alpha (Homo sapiens) (UniProt P0DPH7+P68366+Q71U36+P68363+Q9BQE3+Q6PEY2+A6NHL2+Q9NY65); experiment: Binding affinity to alpha-tubulin in human MDA-MB-453 cells measured after 6 hrs by pull-down assay; format: cell-based; conditions: dose <= 20.0 µM, DDE = dose-dependent effect
[11] = target: T6, Tubulin alpha (Homo sapiens); experiment: Binding affinity to alpha-tubulin in human DOHH-2 cells measured after 6 hrs by pull-down assay; format: cell-based; conditions: DDE = dose-dependent effect

Activity [1]: Dde
Activity [2]: Dde
Activity (Plastin-2 (Homo sapiens)): Active
Activity [3]: Active
Activity [4]: Dde
Activity [5]: Dde
Activity [6]: Dde
Activity [7]: Dde
Activity [8]: Dde
Activity (Homo sapiens): Active
Activity [9]: Dde
Activity [10]: Dde
Activity [11]: Dde
Compound: C#Cc1cccc(C#CS(N)(=O)=O)c1
